We go through five compounds from US20030087830A1, “Low molecular weight components of cartilage, complexes of metals with amino acids, DI-peptides and analogs thereof; processes for preparation and therapeutic uses thereof” (priority 2001, published 2003).

One data set deals with human dermal fibroblasts. The data set can be described thus: Fibroblast proliferation. The class given is cell-based. The note with it: 48 hours; free amino acids and Glu-Trp 2.5 mM, CuCl2 1.25 mM. Here is the method: (§1) Endothelial and tumor cell proliferation assays were performed to determine the ability of test samples to inhibit endothelial cell proliferation (antiangiogenic activity), normal cell proliferation,and tumor cell proliferation.
(§2) Endothelial cells (Human umbilical vein endothelial cells (HUVEC), bovine aortic endothelial cells (BAEC)), skeletal muscle cells, human dermal fibroblasts (all from Clonetics, Walkersville, Md.) were respectively maintained in EBM-2, MDEM, SKGM and FGFM-2 complete media according to manufacturer's instructions. Tumor rat glioblastoma cell line (C6) was maintained in DMEM (Sigma, Oaksville, Ontario) supplemented with 10% fetal calf serum (FCS) and antibiotics in 5% CO2. Briefly, cells seeded in 96-well sterile tissue culture dishes were treated with increasing concentrations of different test samples for a period of 48 hours at 37° C. Cell number was then evaluated by a calorimetric assay using the cell proliferation reagent tetrazolium salt and the fluorimetric assay using DNA dye (Hoescht) according to the procedure established by the manufacturer (Boehringer Mannhein). The conversion of these tetrazolium salts into formazan occurs only in metabolically active cells. The percentage of cell inhibition was determined by comparison to untreated cells.

The test system of data set [1] is blood vessel formation in the vitelline membrane of chick embryo. Briefly: Embryonic Vascularization Test (EVT). The data set is classed as in vivo. Conditions: for EVT activity (in words): in vivo. The protocol: The Embryonic Vascularization Test (EVT) was performed to determine the ability of test samples to inhibit the formation of new blood vessels (antiangiogenic activity).
The normal development of a chick embryo involves the formation of an external vascular system located in the vitelline membrane which carries nutrients from the vitellus (yolk) to the developing embryo. When placed onto the vitelline membrane, antiangiogenic substances can inhibit the blood vessel formation that occurs in the vitelline membrane. Briefly, methylcellulose discs (an inert solid and transparent matrix) containing different test samples were placed on the external border of the vascular perimeter of the vitelline membrane, where the angiogenic process occurs. Vascularization was assessed 24 hours after disc deposition, and results were expressed as the percent of embryos in which blood vessel formation was affected. The blood vessel formation was considered affected when its growing path was either deviated, or diminished or when there was no growth observed beyond the disc as compared to the negative control. The results are expressed as 0, +, and ++ where 0 is for a lower response than 25 percent of the eggs; + is for a response between 25 and 50 percent; and ++ is for an antiangiogenic response observed in more than 50 percent of the eggs.
(§3) According to the endothelial cell proliferation assay, the relative effectiveness of two compounds is compared by reference to the EC50 thereof. The EC50 is the concentration of compound at which the number of endothelial cells is reduced by 50% as compared to control. The efficacy of the test samples in EVT is established by the percent of eggs with altered angiogenesis at a given inhibitor dose of 0.6 mg of copper equivalent (see FIG. 6 for examples). A comparison of the antiangiogenic activity of the compounds of the present invention with divalent metal salts (CuCl2, MgCl2, ZnCl2, CoCl2) and uncoupled alpha-amino acids, alpha-imino acids, dipeptides, and nitrogenated molecules comprising a carboxylic acid group, such as creatine, is provided to illustrate that the formation of the amino acid-copper complex gives rise to complexes having antiangiogenic activity.

For data set [2], the system named is bFGF-stimulated blood vessel formation in Matrigel. The data set can be described thus: Matrigel in vivo angiogenesis assay. Further details: species or system C57B1/6 mice. The note with it: for Matrigel in vivo % inhibition: intra-peritoneal daily 10 days. The protocol: The Matrigel™ in vivo assay was performed to determine the ability of test samples to inhibit blood vessel formation (antiangiogenic activity) and to establish their bioavailability in vivo.
Briefly, liquid Matrigel™ (Becton Dickinson, Bedford, Mass.) was maintained at 4° C. and mixed thoroughly for at least 3 hours with 1,500 ng/ml basic fibroblast growth factor (bFGF) (R&D Systems, Minneapolis, Minn.) used as the primary angiogenic stimulus. The mixture (0.5 ml) was injected subcutaneously into the ventral midline of C57B1/6 mice, and treatment with different test samples or saline solution was initiated the same day. Additional animals were also injected with Matrigel™ containing no bFGF to serve as baseline controls. The animals were treated daily for a 10 day period (intra-peritonealy, 0.2 ml of each dose). At day 11, animals were injected with FITC-dextran 20 min prior to euthanizing treated mice. Matrigel™ gels were removed along with underlying peritoneum and prepared for FITC-dextran detection by fluorimetry. The concentration of FITC-dextran in the gels was calculated from a known concentration of FITC-dextran using a standard curve. The FITC-dextran content of the gels from compound-treated animals and controls was expressed as a percent of the positive bFGF-treated controls after the baseline control of FITC-dextran levels were subtracted from all groups.

Data set [3] deals with Endothelial cells. Briefly: Endothelial cell migration assay (VEGF, modified Boyden chamber). The data set is classed as cell-based. The protocol: The endothelial cell migration assay was performed to determine the ability of test samples to inhibit the chemotaxic activity of vascular endothelial growth factor (VEGF;R/D System, MN) using a modified Boyden chamber (Transwell™, Corning/Costar). Briefly, polyvinylidene difluoride filters (PVDF) were coated with Pronectin F (Biosources, CA), a constituent of basement membrane barrier. Boyden chambers were assembled by adding VEGF to the culture media in the lower chamber (chemoattractant). Endothelial cells suspended in cultured media in the presence or the absence of the test samples were added to the upper chamber. The chambers were then incubated for a period of 4.5 hours at 37° C. At the end of the incubation period, the cells from both side of the PVDF membrane were fixed with 3.7% formaldehyde. Cells from the upper surface of the membrane were mechanically removed, and the cells remaining on the underside of the membrane were stained with crystal violet (0.5%; Sigma). Cells were then carefully rinsed and the dye fixed to the cells was quantified with a microplate reader ([…]) after its solubilization with a solution of 50% citric acid (0.1M) in water and 50% ethanol.

In data set [4] the test system is Endothelial cells (HUVEC, BAEC). The data set can be described thus: Endothelial cell proliferation. The data set is classed as cell-based, human / bovine. Conditions: for EC50: 48 hours, copper equivalent, NA = less than 50% at 1.25 mM copper equivalent, read-out: EC proliferation (EC50 mM). Here is the method: as §1, §2, §3
Data set [5] deals with Endothelial cells. The data set can be described thus: Endothelial cell tubule formation assay (tubulogenesis). The class given is cell-based. On the set-up: key to Tubulogenesis: 0: Numerous capillary-like tube forming pentagonal network; +: Decrease of capillary-like tubes; ++: Dramatic decrease of capillary-like tubes; +++: Absence of capillary-like tubes. The protocol: The endothelial cell tubule formation assay is a semi-quantitative assay that was performed to determine the ability of test samples to inhibit this multi-step process, which involves cell adhesion, migration, differentiation and growth, using a commercial kit (Chemicon). Briefly, endothelial cells were seeded on solid gel of Ecmatrix™ (Chemicon), basement proteins prepared from the Engelbreth Holm-Swarm (EHS) mouse tumor in microplate in a E-99 media (Sigma) supplemented with 5% FBS and VEGF (50 ng/ml) in the presence or absence of the test sample. Cells were incubated for a period of 24 hours at 37° C. Pictures were taken on the entire tissue culture dish using a binocular microscope for further evaluation.

Data set [6] can be described thus: Affinity of the amino acid with copper. The data set is classed as physicochemical.
In data set [7] the test system is Lewis lung carcinoma clone M27. Briefly: Lewis Lung Carcinoma metastatic mouse model (LLC). The class given is in vivo, C57BL/10 female mice. Conditions: for Antimetastatic activity (% inhibition) (at 2.5 mg/kg of Cu-complex): intraperitoneal daily for two weeks, lung surface metastases. From the text: The Lewis Lung Carcinoma mouse model (LLC) was used to determine the ability of different test samples to inhibit the formation of metastases within the lung. The Lewis lung carcinoma clone M27, with a high metastatic potential to the lung, was established by Dr P. Brodt (Brodt P, Characterization of two highly metastatic variants of Lewis lung carcinoma with different organ specificities. Cancer Res., 46: 2442, 1986). This model is well established and is known for its predictive correlation between in vitro and in vivo activity. Briefly, LLC cells were transplanted subcutaneously in the axillary region of the right flank of C57BL/10 female mice (Charles River Inc.) When the primary tumor reached a size of 0.5-1.0 cm^3 (day 10 post-inoculation), the tumor was carefully separated from the surrounding healthy tissues. Treatment with different test samples started the day following tumor removal (day 11 post-inoculation). Saline or different test samples were administered daily for two weeks by intraperitoneal injection (0.2 ml of each dose). As previous experiments had shown that a period of approximately two weeks after removal of the primary tumor was sufficient to obtain an average of 30 to 50 nodules on the lung surface, animals were sacrificed in a CO2 chamber two weeks later. Following autopsy, both lungs were removed, weighed and fixed in 10% Bouin's fixative. Lung surface metastases were counted using a stereomicroscope (4×).

Data set [8] deals with Striated muscle cells (skeletal muscle cells). Briefly: Striated muscle cell proliferation. The note with it: 48 hours; free amino acids and Glu-Trp 2.5 mM, CuCl2 1.25 mM. The data set is classed as cell-based. The protocol:
as §1, §2

[9] abbreviates: activity at 0.6 mg equivalent Copper.
The mark [10] stands for this setting: copper complexes, concentration not given, VEGF, 4.5 hours.
Where [11] appears, read: copper complexes, concentration not given, VEGF 50 ng/ml, 24 hours.

Residues, ends and D or L forms follow the SMILES beside them.

Regarding `C[C@@H](O)[C@H](N)C(=O)[O-].C[C@@H](O)[C@H](N)C(=O)[O-].[Cu+2]` [Compound 5, L-Thr:Cu:L-Thr], the EC50 in the data set with human dermal fibroblasts came out at 1.34 mM; in data set [4] it was 0.3 mM. For the same compound, in data set [1] (setting [9]), the “EVT (% of inhibition)” value was “++ (++ more than 50% of inhibition)”. Further, the “Matrigel in vivo % inhibition” value in data set [2] (1.4 mg/Kg equivalent copper) came out at 47.7%; in data set [2] (7.0 mg/Kg equivalent copper), 59.4%. In the data set with Endothelial cells [3], the “Cell migration activity (in words)” value is reported as “important activity”. Besides, the “Cell Migration (% inhibition)” value in the data set with Endothelial cells [3] (setting [10]) is 90%. Also, in the data set on Endothelial cells [5], the “Tubulogenesis activity (in words)” value is listed as “important activity”. Also, in the data set on Endothelial cells [5] (setting [11]), the Tubulogenesis entry is reported as “++”. Moreover, in data set [6], the “Affinity of the AA with Cooper” value is given as 15.4.
Regarding `N[C@@H](Cc1c[nH]cn1)C(=O)[O-].N[C@@H](Cc1c[nH]cn1)C(=O)[O-].[Cu+2]` [Compound 10, L-His:Cu:L-His], the “EVT (% of inhibition)” value in data set [1] (setting [9]) is 0 (0 non-active (less than 25% of inhibition)). For the same compound, in [1], the “EVT activity (in words)” value was “inactive”. In addition, the “Matrigel in vivo % inhibition” value in data set [2] (7.0 mg/Kg equivalent copper) stood at 63.4%. The “Matrigel in vivo antiangiogenic activity (in words)” value in [2] (mouse, in vivo) is reported as “more active than compound 6”. In the data set with Endothelial cells [3], the “Cell migration activity (in words)” value is “did not show any activity”. In addition, the “Cell Migration (% inhibition)” value in the data set with Endothelial cells [3] (setting [10]) amounted to 65%. In [7], the “Antimetastatic activity (% inhibition) (at 2.5 mg/kg of Cu-complex)” value (from here on “Antimetastatic activity (% inhibition)”) is 63.0%. Besides, in data set [4], the “Endothelial cell proliferation activity (in words)” value was “inactive” and the EC50 was determined as 0.9 mM. The “Tubulogenesis activity (in words)” value with Endothelial cells [5] is listed as “did not show any activity”. In the data set with Endothelial cells [5] (setting [11]), this compound had a Tubulogenesis of 0. In addition, in data set [6], the “Affinity of the AA with Cooper” value was determined as 19.4.
Regarding `[Cl][Cu][Cl]` [CuCl2, copper chloride, reference compound], the “Matrigel in vivo % inhibition” value in data set [2] (7.0 mg/Kg equivalent copper) was 24.2%. The “Cell migration activity (in words)” value with Endothelial cells [3] is “did not show any activity”. For the same compound, the “Cell Migration (% inhibition)” value with Endothelial cells [3] (1.25 mM) is recorded as 6%. Further, the “Tubulogenesis activity (in words)” value in the data set with Endothelial cells [5] was “did not show any activity”. Further, in the data set on Endothelial cells [5] (1.25 mM), the Tubulogenesis was determined as 0.
In the case of `N[C@@H](CCC(=O)O)C(=O)N[C@@H](Cc1c[nH]c2ccccc12)C(=O)O` [Free Glu-Trp, glutamyl-tryptophane, reference compound] (H-Glu-Trp-OH), the “EVT (% of inhibition)” value in [1] (setting [9]) is recorded as 0 (0 non-active (less than 25% of inhibition)). In addition, the “EVT activity (in words)” value in [1] was “almost inactive”. In addition, the “Cell migration activity (in words)” value with Endothelial cells [3] is “did not show any activity”. In addition, 2500 µM produced 10% inhibition in the data set with Endothelial cells [3] (Endothelial cell, 2.5 mM free (not complexed) ligand). The “Antimetastatic activity (% inhibition)” value in data set [7] is listed as 22.8%. The “Endothelial cell proliferation activity (in words)” value in data set [4] was “almost inactive”. Moreover, in the data set on Endothelial cells [5], the “Tubulogenesis activity (in words)” value was “did not show any activity”. Moreover, the Tubulogenesis in the data set on Endothelial cells [5] (2.5 mM free (not complexed) ligand) was determined as 0.
For the compound (Glu—Trp)2-Cu [Compound 33], the values for the EC50 (in [8]; in the data set on human dermal fibroblasts; in data set [4]) were 0.47 mM, 0.66 mM and 0.23 mM, respectively. For the same compound, the “EVT (% of inhibition)” value in [1] (0.6 mg copper equivalent, percent of embryos with affected blood vessel formation, 24 hours after disc deposition) is reported as 60%; in [1] (setting [9]), “++ (++ more than 50% of inhibition)”. Moreover, in the data set with Endothelial cells [3], the “Cell migration activity (in words)” value is “important activity”. The “Cell Migration (% inhibition)” value in the data set on Endothelial cells [3] (setting [10]) is reported as 96%. Besides, the “Antimetastatic activity (% inhibition)” value in [7] is given as 44%. The “Anti-metastatic activity in vivo (in words)” value in data set [7] (mouse, in vivo) was “more active than the free di-peptide”. Besides, the “Tubulogenesis activity (in words)” value in the data set on Endothelial cells [5] is on record as “important activity”. The Tubulogenesis entry with Endothelial cells [5] (setting [11]) is “+++”.
